Earlier results as cited in patent US20050255161A1, “Method for the long term stabilization of labile compounds at room temperature in pharmaceutical preparations containing water” (priority 2004, published 2005).
Read-outs that look alike come from different tables or passages of the source.

solubility in aqueous systems (low acidic medium): ~10 μg's
solubility in aqueous systems (slightly alkaline medium): ~100 μg's
Compound: CCCCC[C@H](O)/C=C/[C@H]1[C@H](O)CC(=O)[C@@H]1CCCCCCC(=O)O [prostaglandin E1, (13E)-(15S)-11alpha, 15-dihydroxy-9-oxoprost-13-enoate]
